# Data reported in patent US7947302B2, “Antithrombotic coating for drug eluting medical devices” (Cordis Corporation, priority 2005, dated 2011).
# pIC50: −log10 of the molar value.
# Experiments:
# [1] = test system: human coronary artery smooth muscle cells; assay: Anti-proliferative activity in synchronized cultured cells, two percent fetal bovine serum (FIG. 64-68); type: cell-based
# Description: (§1) The multiple curves represent various concentrations of topotecan ranging from zero to three hundred nanomolar concentrations.
# (§2) The multiple curves represent various concentrations of etoposide ranging from zero to eight hundred nanomolar concentrations.
# Referring to FIG. 66, there is illustrated, in graphical format, the anti-proliferative activity of Panzem® in synchronized cultured human coronary artery smooth muscle cells stimulated with two percent fetal bovine serum.
# The multiple curves represent various concentrations of Panzem® ranging from zero to 100 micromolar concentrations.
# [2] = test system: human coronary artery smooth muscle cell; assay: MTS cytotoxicity assay (FIG. 69); type: cell-based; details: concentrations up to 30,000.00 nanomolar (6.6 to 30,000.00 nanomolar tested)
# Description: Typically, a control is utilized to determine baseline toxicity.
# [3] = test system: human coronary artery smooth muscle cells; assay: Anti-proliferative activity in non-synchronized cultured cells, two percent fetal bovine serum (FIG. 57, 58); type: cell-based
# Description: FIG. 58 illustrates, in graphical format, the anti-proliferative activity of cladribine in non-synchronized cultured human coronary artery smooth muscle cells stimulated with two percent fetal bovine serum.
# The multiple curves represent various concentrations of cladribine ranging from zero to nine hundred nanomolar concentrations.
# [4] = In vivo release kinetics of cladribine from PVDF/HFP coating on Bx Velocity stents (FIG. 61); parameters: species or system Yorkshire pig; details: 1800 micrograms basecoat, thirty percent cladribine, 300 micrograms topcoat
# Description: FIG. 61 is a graphical representation of the in vivo release kinetics of cladribine from a polymeric coating on BxVelocity® stents, available from Cordis Corporation, implanted in a Yorkshire pig. The basecoat comprises an 85/15 ratio of PVDF and HFP and cladribine for a total combined weight of one thousand eight hundred micrograms (cladribine comprising thirty percent of the total weight). The topcoat comprises an 85/15 ratio of PVDF/HFP and no cladribine. The total weight of the topcoat is three hundred micrograms.
# [5] = In vivo release kinetics from rapamycin/cladribine EVA/BMA basecoat, porcine pharmacokinetics studies (FIG. 62, 63); parameters: species or system Yorkshire pigs; details: comparison of FIG. 63 with FIG. 62
# Description: The basecoat is applied to Bx Velocity® stents and implanted into Yorkshire pigs.
# The basecoat is applied to BxVelocity® stents and implanted into Yorkshire pigs.
# cell viability = assay: Cell viability assay; type: cell-based
# Description: as §1, §2
# [6] = test system: human coronary artery smooth muscle cells; assay: Anti-proliferative activity of rapamycin with mycophenolic acid, non-synchronized cells, two percent fetal bovine serum (FIG. 52); type: cell-based; details: mycophenolic acid zero to one thousand nanomolar; leftward and upward shift
# Description: The multiple curves represent various concentrations of mycophenolic acid ranging from zero to one thousand nanomolar concentrations. […] This potentiation observed in cultured coronary artery smooth muscle cells preferably translates to an enhancement in anti-restenotic efficacy following vascular injury and a reduction in the required amount of either agent to achieve the desired anti-restenotic effect.
# [7] = In vivo release kinetics from rapamycin/mycophenolic acid EVA/BMA basecoat, porcine pharmacokinetics studies (FIG. 53, 54); details: 180 micrograms rapamycin, 180 micrograms mycophenolic acid, 240 micrograms EVA/BMA; none, 100 or 200 micrograms BMA topcoat
# [8] = In vivo release kinetics from rapamycin/mycophenolic acid PVDF basecoat with PVDF topcoat, porcine pharmacokinetics studies (FIG. 56); details: 600 micrograms basecoat, 200 micrograms topcoat
# Description: The topcoat is two hundred micro grams.
# [9] = Liquid formulations with PEG 200, ethanol and water; concentrations by liquid chromatography; type: physicochemical; details: liquid formulation comprising 4 mg/ml of sirolimus
# Description: In accordance with exemplary embodiments of the present invention, a series of liquid formulations were developed for the local or regional delivery of water insoluble compounds such as sirolimus and its analogs, including CCl-779, ABT-578 and everolimus, through weeping balloons and catheter injection needles. […] These liquid formulations increase the apparent solubility of the pharmacologically active but water insoluble compounds by two to four orders of magnitude as compared to the solubility limits of the compounds in water. These liquid formulations rely on the use of a very small amount of organic solvents such as Ethanol (typically less than two percent) and a larger amount of safe amphiphilic (of or relating to a molecule having a polar, water soluble group attached to a non-polar, water insoluble […]) excipients such as polyethylene glycol (PEG 200, PEG 400) and vitamin E TPGS to enhance the solubility of the compounds. These liquid formulations of highly water insoluble compounds are stable and readily flowable at room temperature. Certain excipients, such as Vitamin E TPGS and BHT may be utilized to enhance the storage stability of sirolimus compounds through their anti-oxidation properties. […]
# [10] = test system: human coronary artery smooth muscle cell; assay: In vitro cell culture study of coronary artery smooth muscle cell proliferation (trichostatin A); type: cell-based
# Description: FIG. 51 is a graph of the inhibition of coronary artery smooth muscle cells by trichostatin A in a cell culture study.
# tumor cell lines = details: cited from earlier work
smiles,measurement,setting,value
"COc1cc2c(cc1O)CC[C@@H]1[C@@H]2CC[C@]2(C)[C@@H](O)CC[C@@H]12 [Panzem®, 2-methoxyestradiol]",effect of addition to cells treated with rapamycin,[1]; Panzem 0.813 to 100 micromolar,increases the percent of inhibition of rapamycin alone
same,"anti-proliferative activity (FIG. 66, 67)","[1]; in vitro, agent alone",extremely effective inhibitor
same,MTS assay: cell survival,[2],do not reduce human coronary artery smooth muscle cell survival
"Nc1nc(Cl)nc2c1ncn2[C@H]1C[C@H](O)[C@@H](CO)O1 [cladribine, 2-chlorodeoxyadenosine]",effect of addition to cells treated with rapamycin,[3]; cladribine 56.25 to 900 nanomolar,increases the percent inhibition of rapamycin alone
same,inhibition of human coronary artery smooth muscle cell proliferation,"[3]; non-synchronized cells, two percent fetal bovine serum",completely inhibits
same,in vivo elution from PVDF/HFP (85/15) coating,[4],levels off significantly
same,in vivo elution from EVA/BMA basecoat with BMA topcoat relative to rapamycin,[5],elutes more rapidly than rapamycin
COc1cc([C@@H]2c3cc4c(cc3[C@@H](O[C@@H]3O[C@@H]5CO[C@@H](C)O[C@H]5[C@H](O)[C@H]3O)[C@H]3COC(=O)[C@H]23)OCO4)cc(OC)c1O [etoposide],effect of addition to cells treated with rapamycin,[1]; etoposide 255.7 to eight-hundred nanomolar,increases the percent inhibition of rapamycin alone
same,cytotoxicity in a cell viability assay,cell viability; concentrations up to ten micromolar,non-cytotoxic
COc1c(C)c2c(c(O)c1C/C=C(\C)CCC(=O)O)C(=O)OC2 [mycophenolic acid],effect of addition on the anti-proliferative rapamycin dose response curve,[6],potentiates the anti-proliferative activity of rapamycin
same,in vivo elution from EVA/BMA basecoat relative to co-loaded drug,[7],elutes more completely over a shorter duration than the rapamycin
CO[C@H]1C[C@@H]2CC[C@@H](C)[C@@](O)(O2)C(=O)C(=O)N2CCCC[C@H]2C(=O)O[C@H]([C@H](C)C[C@@H]2CC[C@@H](O)[C@H](OC)C2)CC(=O)[C@H](C)/C=C(\C)[C@@H](O)[C@@H](OC)C(=O)[C@H](C)C[C@H](C)/C=C/C=C/C=C/1C [rapamycin],in vivo release rate from PVDF basecoat with PVDF topcoat relative to co-loaded drug,[8],slower release rate than that of mycophenolic acid
same,concentration of sirolimus relative to the solubility of sirolimus in water,[9],four hundred to about one thousand
CC[C@@]1(O)C(=O)OCc2c1cc1n(c2=O)Cc2cc3c(CN(C)C)c(O)ccc3nc2-1 [topotecan],effect of addition to cells treated with rapamycin,[1]; topotecan 18.8 to 300 nanomolar,increases the percent inhibition of rapamycin alone
same,cytotoxicity in a separate cell viability assay,cell viability; concentrations up to one micromolar,non-cytotoxic
CC(/C=C/C(=O)NO)=C\[C@@H](C)C(=O)c1ccc(N(C)C)cc1 [trichostatin A],inhibition of human coronary artery smooth muscle cell proliferation,[10],completely inhibit
same,pIC50,[10]; read-out: anti-proliferative IC50,~8.22
same,anti-proliferative IC50's,tumor cell lines,low nM range
